Data taken from BindingDB's records for doi:10.1124/jpet.301.2.527 (Mercer University, 2002).

Experiments:
[1] = target: Sodium-dependent dopamine transporter (Rattus norvegicus, UniProt P23977)
[2] = target: Sodium-dependent serotonin transporter (Rattus norvegicus, UniProt P31652)
Chain of Sodium-dependent serotonin transporter (P31652 whole entry): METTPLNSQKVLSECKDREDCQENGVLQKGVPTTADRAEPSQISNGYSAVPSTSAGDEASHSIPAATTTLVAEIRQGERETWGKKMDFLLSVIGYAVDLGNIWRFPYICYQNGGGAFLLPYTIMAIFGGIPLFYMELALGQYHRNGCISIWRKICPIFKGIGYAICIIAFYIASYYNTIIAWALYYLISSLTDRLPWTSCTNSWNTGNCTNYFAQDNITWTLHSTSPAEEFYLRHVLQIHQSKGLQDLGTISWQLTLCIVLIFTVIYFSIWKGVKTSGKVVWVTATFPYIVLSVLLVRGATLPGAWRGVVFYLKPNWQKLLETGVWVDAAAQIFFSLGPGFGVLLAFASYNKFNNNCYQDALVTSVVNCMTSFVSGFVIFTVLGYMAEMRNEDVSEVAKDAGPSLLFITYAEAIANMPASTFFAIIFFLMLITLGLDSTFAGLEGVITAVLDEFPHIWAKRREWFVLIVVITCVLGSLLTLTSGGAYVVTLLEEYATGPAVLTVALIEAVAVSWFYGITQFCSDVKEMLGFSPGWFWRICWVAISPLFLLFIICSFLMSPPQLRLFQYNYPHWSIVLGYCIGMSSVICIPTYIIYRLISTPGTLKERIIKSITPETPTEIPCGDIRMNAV

Chain of Sodium-dependent dopamine transporter (P23977 whole entry): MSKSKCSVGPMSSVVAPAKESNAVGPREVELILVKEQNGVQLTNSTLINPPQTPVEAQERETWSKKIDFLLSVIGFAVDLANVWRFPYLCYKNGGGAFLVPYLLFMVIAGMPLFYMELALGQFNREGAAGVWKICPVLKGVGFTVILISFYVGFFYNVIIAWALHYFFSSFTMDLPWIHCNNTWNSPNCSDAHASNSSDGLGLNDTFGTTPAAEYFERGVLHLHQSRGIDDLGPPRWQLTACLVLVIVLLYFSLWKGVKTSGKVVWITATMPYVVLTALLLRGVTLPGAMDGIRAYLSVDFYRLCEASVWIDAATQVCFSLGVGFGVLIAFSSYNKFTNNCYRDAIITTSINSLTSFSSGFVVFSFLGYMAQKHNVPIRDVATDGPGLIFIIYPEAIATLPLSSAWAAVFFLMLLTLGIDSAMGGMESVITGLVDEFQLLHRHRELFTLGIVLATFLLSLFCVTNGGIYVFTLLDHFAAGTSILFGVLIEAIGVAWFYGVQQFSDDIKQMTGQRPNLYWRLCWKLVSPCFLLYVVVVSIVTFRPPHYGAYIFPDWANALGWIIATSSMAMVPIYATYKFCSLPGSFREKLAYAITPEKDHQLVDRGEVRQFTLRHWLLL

Row | Compound | Ki [1] | Ki [2]
1 | COC(=O)[C@H](c1ccc(Cl)c(Cl)c1)[C@@H]1CCCCN1 [3,4CTMP] | 5.3 nM | –
2 | COC(=O)[C@H](c1cccc(Cl)c1)[C@@H]1CCCCN1C [3CTMPNMe] | 160 nM | > 10000 nM
3 | COC(=O)[C@H](c1cccc(Cl)c1)[C@@H]1CCCCN1 [3CTMP] | 5.1 nM | > 10000 nM
4 | COC(=O)[C@H](c1ccc(N)cc1)[C@@H]1CCCCN1 [4ATMP] | 34.5 nM | > 10000 nM
5 | COC(=O)[C@H](c1ccc(F)cc1)[C@@H]1CCCCN1 [4FTMP] | 35 nM | > 10000 nM
6 | COC(=O)[C@H](c1ccc(C)cc1)[C@@H]1CCCCN1C [4MeTMPNMe] | 140 nM | 1110 nM
7 | COC(=O)[C@H](c1ccc(C)cc1)[C@@H]1CCCCN1 [4MeTMP] | 33 nM | > 10000 nM
8 | COC(=O)[C@H](c1ccccc1)[C@@H]1CCCCN1C [TMPNMe] | 499 nM | > 10000 nM
9 | COC(=O)[C@H](c1ccccc1)[C@@H]1CCCCN1 [TMP] | – | > 10000 nM
10 | CCCCN1CCCC[C@H]1[C@H](CO)c1ccccc1 [TROHNBn] | 23.7 nM | 204 nM
11 | CCCCN1CCCC[C@H]1[C@H](COC)c1ccccc1 [TROMeNBn] | 17.8 nM | 166 nM
